Measured values: patent publication US20250282752A1, “Quinazoline Derivative Salt Crystal Form, Preparation Method and Application” (WEISHANG (SHANGHAI) BIO-PHARMACEUTICAL CO., LTD., priority 2018, published 2025)
Counter-ions that a name gives are not always drawn. Like-named read-outs stand apart in the source and are kept apart here. Blank lines part the entries; values can stand above or below the compound they belong to.

Experiments:
[1] = Rat pharmacokinetic study; format: in vivo; conditions: rats; for bioavailability: intravenous 1-2 mg/kg, oral 2-40 mg/kg
Procedure: In the rat pharmacokinetic study, a group of rats (three rats) were injected intravenously with 1-2 mg/kg, and the second group of rats (three rats) were orally administered 2-40 mg/kg at 7 time points (0.25, 0.5, 1, 2, 4, 8, 16 hours) of the quinazoline derivative (I) of the present invention. Take blood to measure the concentration of the quinazoline derivative (I) of the present invention in the blood, and calculate the peak area and half-life. The calculation method of bioavailability is: (peak area of drug oral/oral dose)/(peak area of drug intravenous injection/intravenous dose)×100%.

[2] = TGA/DSC behaviour during heating; format: physicochemical; conditions: heating process; for weight loss during heating (TGA): FIG. 23A; for stability of crystal form during heating (DSC): FIG. 23B
P-glycoprotein = P-glycoprotein (Homo sapiens, UniProt P08183); assay: P-gp efflux substrate; format: in vitro ADME
[3] = test system: patient primary brain tumor tissue with EGFRVIII mutation; assay: Subcutaneous PDX mouse model of glioma with […] mutation; format: in vivo; conditions: orally, twice a day, three weeks
Procedure: The patient's primary tumor tissue (brain tumor) was implanted under the skin of the mouse, and the tumor grew to about 150 cubic millimeters, and the medication was started for three weeks. […] The second group of quinazoline derivatives (I) single agent, 3 mg/kg, orally, twice a day, the third group of quinazoline derivatives (I) single agent, 10 mg/kg, orally, two times a day, the fourth group of quinazoline derivatives (I) is a single agent, 20 mg/kg, orally, twice a day.

EGFRV3 (EGFRVIII) = EGFRV3 (EGFRVIII) (Homo sapiens, UniProt P00533, DELINS30-297G); assay: Western blot of […] phosphorylation; format: cell-based; conditions: FIG. 21
From the text: FIG. 21 is a schematic diagram of the inhibition of […] phosphorylation by quinazoline derivatives of the present invention;
It can be seen from Table 22 that the quinazoline derivative (I) with the configuration of R according to the present invention has unexpected […] mutation activity, which is >100 times higher activity than the enantiomer activity while has similar biological activity for EGFR Del 19 activating mutation.

[4] = molecular target: T1, Breast cancer resistance protein (BCRP) (Homo sapiens, UniProt Q9UNQ0); assay: BCRP efflux substrate; format: in vitro ADME
T1 sequence (Q9UNQ0 1-655): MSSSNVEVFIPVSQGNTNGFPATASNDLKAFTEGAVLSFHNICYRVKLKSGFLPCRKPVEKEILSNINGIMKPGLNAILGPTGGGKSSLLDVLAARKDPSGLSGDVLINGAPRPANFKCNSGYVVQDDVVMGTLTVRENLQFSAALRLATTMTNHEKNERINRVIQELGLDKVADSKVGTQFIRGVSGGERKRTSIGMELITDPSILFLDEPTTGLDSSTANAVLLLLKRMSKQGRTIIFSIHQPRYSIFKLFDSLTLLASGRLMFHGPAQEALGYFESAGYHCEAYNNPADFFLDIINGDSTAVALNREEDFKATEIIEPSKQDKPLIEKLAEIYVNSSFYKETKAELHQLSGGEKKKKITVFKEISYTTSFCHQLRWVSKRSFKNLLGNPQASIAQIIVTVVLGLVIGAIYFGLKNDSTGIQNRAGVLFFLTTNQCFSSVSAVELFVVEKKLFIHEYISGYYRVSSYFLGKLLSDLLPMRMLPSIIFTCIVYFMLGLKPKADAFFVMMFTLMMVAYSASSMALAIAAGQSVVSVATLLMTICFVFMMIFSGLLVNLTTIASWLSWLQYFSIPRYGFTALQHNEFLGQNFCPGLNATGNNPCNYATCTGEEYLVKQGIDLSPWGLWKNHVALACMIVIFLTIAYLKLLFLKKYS

[5] = Blood-brain barrier penetration in rats; format: in vivo, rat; conditions: oral, four hours after administration
Procedure: To determine whether the quinazoline derivative (I) can cross the blood-brain barrier (BBB), the test compound was administered to rats orally. Four hours after the administration, the rats were killed, blood and brain tissue were collected, and the concentration of the test compound was analyzed. Brain penetration is defined as the ratio of the concentration of the compound in brain tissue to the concentration in plasma. Crossing the blood-brain barrier is the ratio of the free concentration of the drug in the brain tissue to the free concentration of the drug in the plasma. P-glycoprotein is an efflux protein of the blood-brain barrier, which discharges the P-glycoprotein substrate […]. Breast cancer resistance protein is an efflux protein from the blood-brain barrier, which excretes […].

[6] = Equilibrium solubility in water; format: physicochemical; conditions: room temperature, 24 hours, listed as quinazoline derivative (I) free base
Procedure: Experimental method: Weigh about 10 mg of solid sample (free base and various salt forms and crystal forms), add 1.5 mL of water, and after equilibrate at room temperature for 24 hours, take out 0.3 mL of turbid solution, and centrifuge to separate the lower solid and supernatant. After the supernatant was filtered through a 0.45 μm (PTFE) filter, the concentration of free alkali was tested.

[7] = test system: PC-9 tumor cell (EGFR Del 19 mutation); assay: CellTiter-Glo cell viability, PC-9 tumor cells; format: cell-based; conditions: 72 hours, read-out: Inhibition of growth of PC-9 tumor cell (EGFR Del 19 mutation), IC50
Procedure: (§1) Add 100 microliters of CellTiter-Glo reagent to each well and mix on an orbital shaker for 2 minutes to induce cell lysis. The plate was incubated at room temperature for 10 minutes to stabilize the luminescence signal. The luminescence signal was recorded on the TECAN Infinite M1000 Pro instrument.

[8] = test system: Glioma PDX with EGFRVIII mutation; assay: CellTiter-Glo cell viability, glioma tumor cells; format: cell-based
Procedure: as §1

EGFR enzyme = EGFR enzyme (Homo sapiens, UniProt P00533); assay: EGFR enzyme inhibition mechanism (ADP-Glo, ATP titration); format: biochemical; conditions: ATP diluted from 600 uM, EGFR 0.4 nM to 0.0125 nM; FIG. 24
Procedure: In the experiment of the quinazoline derivative (I) of the present invention on the mechanism of inhibiting EGFR, the EGFR enzyme was added to the 384-well plate from 6 concentrations diluted in equal proportions (2 times) of 0.4 nM to 0.0125 nM and 0 concentration in polyE4Y1 solution, incubate for 15 minutes, add 7 concentrations of ATP diluted from 600 uM in equal proportions (2 times) to react for 60 minutes, add ADP-Glo reagent and detection reagent for 40 minutes to measure RLU signal. […] The benefits of this mechanism of action are obvious. The quinazoline derivative (I) of the present invention has this mechanism of action, showing high activity and high selectivity, and has the characteristics of small side effects and resistance to drug resistance.

[9] = listed as quinazoline derivative fumarate salt
[10] = listed as quinazoline derivatives (I)

P-glycoprotein, sequence (P08183 whole entry): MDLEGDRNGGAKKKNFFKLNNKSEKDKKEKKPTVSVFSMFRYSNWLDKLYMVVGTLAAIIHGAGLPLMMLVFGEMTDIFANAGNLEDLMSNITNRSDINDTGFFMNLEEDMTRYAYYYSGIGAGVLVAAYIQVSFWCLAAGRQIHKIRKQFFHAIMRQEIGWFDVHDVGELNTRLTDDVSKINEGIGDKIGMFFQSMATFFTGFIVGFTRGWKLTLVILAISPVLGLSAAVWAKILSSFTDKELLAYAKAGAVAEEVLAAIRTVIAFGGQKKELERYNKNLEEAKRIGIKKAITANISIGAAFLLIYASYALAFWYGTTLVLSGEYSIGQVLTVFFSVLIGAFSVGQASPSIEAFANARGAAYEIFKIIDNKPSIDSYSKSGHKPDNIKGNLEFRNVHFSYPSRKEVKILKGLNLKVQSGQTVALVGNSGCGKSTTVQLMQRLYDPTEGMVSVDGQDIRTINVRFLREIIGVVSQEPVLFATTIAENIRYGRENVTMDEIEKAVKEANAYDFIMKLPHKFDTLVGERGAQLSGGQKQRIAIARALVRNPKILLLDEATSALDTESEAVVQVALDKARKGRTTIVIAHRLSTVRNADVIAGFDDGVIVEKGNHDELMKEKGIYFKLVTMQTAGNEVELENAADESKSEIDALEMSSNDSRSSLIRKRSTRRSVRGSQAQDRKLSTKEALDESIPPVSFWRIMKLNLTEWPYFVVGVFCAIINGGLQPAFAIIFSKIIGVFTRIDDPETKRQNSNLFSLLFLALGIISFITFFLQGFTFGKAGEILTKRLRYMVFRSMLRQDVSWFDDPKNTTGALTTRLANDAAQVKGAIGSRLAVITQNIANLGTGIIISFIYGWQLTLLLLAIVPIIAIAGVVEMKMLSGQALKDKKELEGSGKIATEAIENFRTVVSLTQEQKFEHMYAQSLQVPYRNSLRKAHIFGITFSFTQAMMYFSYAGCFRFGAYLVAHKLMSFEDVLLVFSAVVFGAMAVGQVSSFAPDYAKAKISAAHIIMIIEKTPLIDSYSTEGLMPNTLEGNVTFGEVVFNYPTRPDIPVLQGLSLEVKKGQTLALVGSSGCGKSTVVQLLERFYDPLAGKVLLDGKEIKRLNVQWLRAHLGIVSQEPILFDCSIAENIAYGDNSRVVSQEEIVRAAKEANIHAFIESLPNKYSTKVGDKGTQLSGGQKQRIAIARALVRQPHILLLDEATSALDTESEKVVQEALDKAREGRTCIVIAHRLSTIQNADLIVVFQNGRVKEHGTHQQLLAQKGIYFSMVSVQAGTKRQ

bioavailability ([1]; rat, blood, po, read-out: bioavailability): > 60%
SMILES: C#Cc1cccc(Nc2ncnc3cc(OC)c(O[C@@H]4CCN(C)CC4(F)F)cc23)c1F [Hydrochloride crystal form B, (R)-6-[(3,3-difluoro-1-methylpiperidin-4-yl)oxy]-N-(3-Ethynyl-2-fluorophenyl)-7-methoxyquinazolin-4-amine]

half-life ([1]; rat, blood): 7.4 h
bioavailability [1]: 80%
weight loss during heating (TGA) [2]: no significant weight loss
weight loss during heating (TGA) [2, 9]: without significant weight loss
stability of crystal form during heating (DSC) [2]: good stability
SMILES: C#Cc1cccc(Nc2ncnc3cc(OC)c(O[C@@H]4CCN(C)CC4(F)F)cc23)c1F [fumarate crystal form A, (R)-6-[(3,3-difluoro-1-methylpiperidin-4-yl)oxy]-N-(3-Ethynyl-2-fluorophenyl)-7-methoxyquinazolin-4-amine]
stability of crystal form during heating (DSC) [2, 9]: the crystal form is stable during heating

P-gp efflux substrate (P-glycoprotein): not a P-glycoprotein or BCRP substrate
P-gp efflux substrate (P-glycoprotein; [10]): no
phosphorylation of EGFRV3 (EGFRV3 (EGFRVIII)): inhibited
BCRP efflux substrate [4]: not a P-glycoprotein or BCRP substrate
BCRP efflux substrate [4, 10]: no
Blood brain barrier penetration rate (free concentration in brain tissue / free concentration in plasma) [5, 10]: >50%
Kp at 4 h ([5]; rat, brain tissue / plasma (free concentrations), read-out: Blood brain barrier penetration rate (free concentration in brain tissue / free concentration in plasma)): > 0.5
equilibrium solubility in water [6]: <5 µg/mL
IC50 [7]: 8 nM
IC50 ([8]; read-out: Inhibition of growth of Glioma PDX with EGFRVIII mutation, IC50, 72 hours, CellTiter-Glo): 10 nM
mechanism of inhibiting EGFR (EGFR enzyme): non-ATP competition mechanism
SMILES: C#Cc1cccc(Nc2ncnc3cc(OC)c(O[C@@H]4CCN(C)CC4(F)F)cc23)c1F [quinazoline derivative (I), (R)-6-[(3,3-difluoro-1-methylpiperidin-4-yl)oxy]-N-(3-Ethynyl-2-fluorophenyl)-7-methoxyquinazolin-4-amine]
tumor reduction ([3]; 20 mg/kg): caused tumor reduction
inhibition of tumor growth vs control group ([3]; 3, 10 and 20 mg/kg, FIG. 22): good inhibition of tumor growth
EGFRVIII mutation activity relative to the enantiomer ([8]; R configuration vs S enantiomer): > 100 times
